Reference: PubChem BioAssay (NCI)
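These data come from cells grown in 96-well plates and exposed to compound for 48 hours at five concentrations. GI50: concentration for 50% inhibition of growth. TGI denotes the concentration required for complete inhibition of growth.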

Key:
Experiment in all cases: NCI-60 cell line screen, 48 h
[1] = system: NCI/ADR-RES ovarian
[2] = system: 786-0 renal
[3] = system: COLO 205 colon
[4] = system: NCI-H522 lung
[5] = system: OVCAR-3 ovarian
[6] = system: UO-31 renal
[7] = system: KM12 colon
[8] = system: RXF 393 renal
[9] = system: CCRF-CEM leukemia
[10] = system: K-562 leukemia
[11] = system: SR leukemia
[12] = system: HT29 colon
[13] = system: HOP-92 NSCLC
[14] = system: SF-295 CNS
[15] = system: SK-MEL-28 melanoma
[16] = system: SF-539 CNS
[17] = system: SK-MEL-2 melanoma
[18] = system: HCT-116 colon
[19] = system: SW-620 colon
[20] = system: DU-145 prostate
[21] = system: LOX IMVI melanoma
[22] = system: EKVX NSCLC
[23] = system: SNB-75 CNS
[24] = system: NCI-H226 lung
[25] = system: HOP-62 NSCLC
[26] = system: MDA-MB-231 breast
[27] = system: MOLT-4 leukemia
[28] = system: TK-10 renal
[29] = system: T-47D breast
[30] = system: MALME-3M melanoma
[31] = system: U251 CNS
[32] = system: SF-268 CNS
[33] = system: HL-60(TB) leukemia
[34] = system: NCI-H460 lung
[35] = system: MDA-MB-435
[36] = system: A498 renal
[37] = system: A549 NSCLC
[38] = system: PC-3 prostate
[39] = system: UACC-62 melanoma
[40] = system: RPMI-8226 leukemia
[41] = system: HCC-2998 colon
[42] = system: HCT-15 colon
[43] = system: SNB-19 CNS
[44] = system: OVCAR-4 ovarian
[45] = system: OVCAR-5 ovarian
[46] = system: OVCAR-8 ovarian
[47] = system: SK-MEL-5 melanoma
[48] = system: IGROV1 ovarian
[49] = system: BT-549 breast
[50] = system: MCF7 breast
[51] = system: UACC-257 melanoma
[52] = system: SN12C renal
[53] = system: SK-OV-3 ovarian
[54] = system: ACHN renal
[55] = system: CAKI-1 renal
[56] = system: M14 melanoma
[57] = system: HS 578T breast

C/C(=N\NC(=S)Nc1ccc(Br)cc1)c1cc2ccccc2oc1=O
GI50 [1]: 0.523 µM | TGI [1]: 12.8 µM | GI50 [2]: 2.46 µM | TGI [2]: 13.5 µM | GI50 [3]: 3.34 µM | TGI [3]: 12.1 µM | GI50 [4]: 0.582 µM | TGI [4]: 4.68 µM | GI50 [5]: 0.427 µM | TGI [5]: 13 µM | GI50 [6]: 587 nM | TGI [6]: 10.4 µM | GI50 [7]: 0.6 µM | TGI [7]: 8.23 µM | GI50 [8]: 1.45 µM | TGI [8]: 4 µM | GI50 [9]: 0.464 µM | TGI [9]: 9.51 µM | GI50 [10]: 0.42 µM | TGI [10]: 21.1 µM | GI50 [11]: 0.314 µM | TGI [11]: 2.33 µM | GI50 [12]: 3.72 µM | TGI [12]: 14.4 µM | GI50 [13]: 1210 nM | TGI [13]: 18 µM | GI50 [14]: 2.49 µM | TGI [14]: 7.18 µM | GI50 [15]: 0.872 µM | TGI [15]: 13.1 µM | GI50 [16]: 1.33 µM | TGI [16]: 10.5 µM | GI50 [17]: 0.789 µM | TGI [17]: 8.34 µM | GI50 [18]: 0.579 µM | TGI [18]: 12.5 µM | GI50 [19]: 0.892 µM | TGI [19]: 15.7 µM | GI50 [20]: 1.79 µM | TGI [20]: 25.8 µM | GI50 [21]: 0.53 µM | TGI [21]: 5.34 µM | GI50 [22]: 2.85 µM | TGI [22]: 30.8 µM | GI50 [23]: 0.615 µM | TGI [23]: 4.27 µM | GI50 [24]: 1.28 µM | TGI [24]: 5.24 µM | GI50 [25]: 0.841 µM | TGI [25]: 12.6 µM | GI50 [26]: 0.956 µM | TGI [26]: 25.2 µM | GI50 [27]: 0.46 µM | TGI [27]: 12 µM | GI50 [28]: 4.65 µM | TGI [28]: 28.3 µM | GI50 [29]: 0.952 µM | TGI [29]: 11.9 µM | GI50 [30]: 1.12 µM | TGI [30]: 7 µM | GI50 [31]: 0.64 µM | TGI [31]: 12 µM | GI50 [32]: 0.883 µM | TGI [32]: 17.2 µM | GI50 [33]: 0.44 µM | TGI [33]: 3.08 µM | GI50 [34]: 0.462 µM | TGI [34]: 4.58 µM | GI50 [35]: 0.353 µM | TGI [35]: 11.9 µM | GI50 [36]: 14.4 µM | TGI [36]: 31.4 µM | GI50 [37]: 2.39 µM | TGI [37]: 13.4 µM | GI50 [38]: 0.833 µM | TGI [38]: 14 µM | GI50 [39]: 0.476 µM | TGI [39]: 3.71 µM | GI50 [40]: 1.21 µM | TGI [40]: 11.2 µM | GI50 [41]: 1.69 µM | TGI [41]: 5.52 µM | GI50 [42]: 0.404 µM | TGI [42]: 13.5 µM | GI50 [43]: 1.41 µM | TGI [43]: 24.6 µM | GI50 [44]: 2.24 µM | TGI [44]: 49.7 µM | GI50 [45]: 2.46 µM | TGI [45]: 14.2 µM | GI50 [46]: 1.12 µM | TGI [46]: 11.1 µM | GI50 [47]: 1.19 µM | TGI [47]: 3.5 µM | GI50 [48]: 0.84 µM | TGI [48]: 15.3 µM | GI50 [49]: 1.26 µM | TGI [49]: 6.36 µM | GI50 [50]: 0.87 µM | TGI [50]: 10.9 µM | GI50 [51]: 2.24 µM | TGI [51]: 8.56 µM | GI50 [52]: 1.59 µM | TGI [52]: 15.2 µM | GI50 [53]: 3.12 µM | TGI [53]: 11.6 µM | GI50 [54]: 0.76 µM | TGI [54]: 17.1 µM | GI50 [55]: 0.561 µM | TGI [55]: 9.94 µM | GI50 [56]: 0.604 µM | TGI [56]: 2.22 µM

CCOc1ccc(-c2nnc(C3CC(NC(=O)c4cccc5nccnc45)C3)n2-c2ccccc2F)nc1 (centres undefined)
GI50 [1]: 19.2 µM | TGI [1]: 92.9 µM | GI50 [2]: 17.6 µM | TGI [2]: > 100 µM | GI50 [3]: 19.1 µM | TGI [3]: 50.9 µM | GI50 [4]: 14.9 µM | TGI [4]: 34.2 µM | GI50 [5]: 13.3 µM | TGI [5]: 36.1 µM | TGI [6]: > 100 µM | GI50 [7]: 23.6 µM | TGI [7]: 60.1 µM | GI50 [8]: 6.82 µM | TGI [8]: 21.5 µM | GI50 [9]: 21.3 µM | TGI [9]: 59.7 µM | GI50 [10]: 24.1 µM | TGI [10]: > 100 µM | GI50 [11]: 16.5 µM | TGI [11]: 52.9 µM | GI50 [12]: 15.1 µM | TGI [12]: 32.4 µM | GI50 [13]: 4020 nM | TGI [13]: 40 µM | GI50 [14]: 18.7 µM | TGI [14]: 39.7 µM | GI50 [15]: 19.3 µM | TGI [15]: 48.1 µM | GI50 [16]: 14.6 µM | TGI [16]: 29.2 µM | GI50 [17]: 14.8 µM | TGI [17]: 36.4 µM | GI50 [18]: 16 µM | TGI [18]: 36.2 µM | GI50 [19]: 31.9 µM | TGI [19]: > 100 µM | GI50 [20]: 25.9 µM | TGI [20]: > 100 µM | GI50 [21]: 17.5 µM | TGI [21]: 36.7 µM | GI50 [22]: 27 µM | TGI [22]: > 100 µM | GI50 [23]: 13.2 µM | TGI [23]: 46.4 µM | GI50 [24]: 13.1 µM | TGI [24]: 41.5 µM | GI50 [25]: 12.7 µM | TGI [25]: 36.9 µM | GI50 [26]: 17.7 µM | TGI [26]: 51.8 µM | GI50 [27]: 14.8 µM | TGI [27]: 39.9 µM | TGI [28]: 31.1 µM | GI50 [29]: 7.24 µM | TGI [29]: 39.6 µM | GI50 [30]: 17.4 µM | TGI [30]: 47.2 µM | GI50 [31]: 10.7 µM | TGI [31]: 29.8 µM | GI50 [32]: 20.4 µM | TGI [32]: > 100 µM | GI50 [33]: 20.9 µM | TGI [33]: 48.3 µM | GI50 [34]: 26.9 µM | TGI [34]: > 100 µM | GI50 [35]: 21.2 µM | TGI [35]: 51.5 µM | GI50 [36]: 8.31 µM | TGI [36]: 58.6 µM | GI50 [37]: 24.2 µM | TGI [37]: > 100 µM | GI50 [38]: 21.1 µM | TGI [38]: 86.9 µM | GI50 [39]: 17.5 µM | TGI [39]: 38.4 µM | GI50 [40]: 12.9 µM | TGI [40]: 35.3 µM | GI50 [41]: 18.3 µM | TGI [41]: 35.3 µM | GI50 [42]: 23.2 µM | TGI [42]: 89 µM | GI50 [43]: 24.5 µM | TGI [43]: > 100 µM | GI50 [44]: 12.2 µM | TGI [44]: > 100 µM | GI50 [45]: 18.2 µM | TGI [45]: 52.8 µM | GI50 [46]: 22.8 µM | TGI [46]: > 100 µM | GI50 [47]: 14.2 µM | TGI [47]: 27.4 µM | GI50 [57]: 16.3 µM | TGI [57]: 94.8 µM | GI50 [48]: 17 µM | TGI [48]: > 100 µM | GI50 [49]: 10.9 µM | TGI [49]: 23.7 µM | GI50 [50]: 21.4 µM | TGI [50]: 90.7 µM | GI50 [51]: 19.6 µM | TGI [51]: 51 µM | GI50 [52]: 14.7 µM | TGI [52]: 50.5 µM | GI50 [53]: 13.6 µM | TGI [53]: 38.2 µM | GI50 [54]: 15.1 µM | TGI [54]: 29.8 µM | GI50 [55]: 14.3 µM | TGI [55]: > 100 µM | GI50 [56]: 16.2 µM | TGI [56]: 32.9 µM
